9 compounds from PubChem BioAssay (NCI) can be followed below.

Holding throughout (assay): DTP human tumour cell line panel, 48 h
Test [1] relates to M14 melanoma.
The subject of test [2] is EKVX NSCLC.
In test [3] the test system is UACC-257 melanoma.
Test [4] deals with RXF 393 renal.
Test [5] has as its system NCI/ADR-RES ovarian.
In test [6] the test system is OVCAR-8 ovarian.
Test [7] relates to SR leukemia.
In test [8] the test system is OVCAR-5 ovarian.
The subject of test [9] is HS 578T breast.
The test system of test [10] is SW-620 colon.

Each structure is given as a SMILES string. Several values for one entry are separate records, joined by “and”; a condition that tells them apart may be missing. Equal values may be shown once.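 Briefly, cells in 96-well plates were exposed to five compound concentrations for 48 h, and endpoints were estimated by linear interpolation. GI50 marks 50% less growth. TGI marks complete inhibition of growth.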

As for `N[C@H](C(=O)O)[C@@H]1CC(Cl)=NO1`, the GI50 is 38.9 µM in test [1]; 11.5 µM in test [2]; 84.8 µM in test [3]; 37.7 µM in test [5]; 22.2 µM in test [6]; 3.44 µM in [7]. The GI50 in [9] is 7.42 µM; in test [10] it was 7.48 µM. Further, the TGI in test [1] was > 1000 µM; in test [2], 303 µM; in test [3], > 1000 µM; in test [4], 718 µM; in test [5], 530 µM; in [6], 502 µM. Besides, the TGI is > 583 µM in test [7], 648 µM in test [8], > 1000 µM in [9] and > 1000 µM in test [10].
Consider `COCCOC(=O)C1=C(O)c2ccccc2S(=O)(=O)N1C`, for which the total growth inhibition concentration (TGI) in test [1], in test [2], in test [3], in test [4], in test [5] and in test [6] was > 100 µM throughout. The TGI in [7], in [8], in test [9] and in test [10] was > 100 µM each time.
For the compound `C=CC(=O)N1CCC(Oc2cc3c(Nc4ccc(Cl)c(Cl)c4F)ncnc3cc2OC)CC1`, the GI50 in test [1] was 4 µM and 3.1 µM; in test [2], < 0.001 µM; in test [3], 11.5 µM and 6.67 µM; in test [4] it was 0.596 µM and 0.81 µM; in [5] it was 1.43 µM and 1.41 µM; in test [6], 4.52 µM and 1.91 µM. The GI50 in test [7] is 2.27 µM and 2.8 µM; in [8] it was 4.93 µM and 3.03 µM; in test [9] it was 3.61 µM and 1.74 µM; in [10], 10.3 µM and 4.24 µM. Also, the TGI in test [1] is 20.2 µM and > 10 µM; in [2], 17.2 µM and > 10 µM; in test [3], 31.7 µM and > 10 µM; in test [4], 2.76 µM and 3.87 µM; in [5], 10.3 µM and > 9.25 µM; in [6] it was 28.6 µM and > 10 µM. The TGI in [7] was 10.9 µM and > 10 µM; in [8] it was 39 µM and > 10 µM; in test [9], 44.1 µM and 8.16 µM; in [10], 34.2 µM and > 10 µM.
`CC(=O)OC1OC([C@H]2c3cccc(O)c3C(=O)c3c(O)cc(C)cc32)C(O)C(O)C1O` (stereo partly drawn): the GI50 in test [1] is < 0.0214 µM; in [2], 0.198 µM; in test [3], < 0.0139 µM; in test [4], < 0.0267 µM; in [5], 0.0383 µM; in [6] it was 0.0294 µM. The 50% growth inhibitory concentration (GI50) in [7] is 0.0308 µM; in [8] it was < 0.0296 µM; in test [10] it was 0.112 µM. Also, the concentration for total growth inhibition (TGI) in [1] worked out at 3.85 µM; in test [2], 3.04 µM; in test [4] it was 0.346 µM; in [5], 5.95 µM; in [6], 0.0873 µM; in test [7], 0.119 µM. Besides, the values for the TGI in test [8], in test [9] and in test [10] were 4.71 µM, 0.728 µM and 14.1 µM, respectively.
`CN(C)Cc1cc(C(F)(F)F)ccc1C(O)(c1ccccc1)c1ccccc1`: the TGI in test [1] came out at 25.3 µM; in test [2], 29.6 µM; in [3], 24 µM; in test [4], 25.4 µM; in [5], 30.4 µM; in test [6] it was 35.8 µM. The TGI in test [7] was 28 µM; in [8] it was 36.9 µM; in [9] it was > 100 µM; in [10], 41 µM.
For `NCCCNCCS`, the concentration for total growth inhibition (TGI) in [1], in [2], in test [3], in test [4], in [5] and in test [6] was > 100 µM in each case. Further, the TGI in [7], in test [8], in test [9] and in test [10] was > 100 µM throughout. For the same compound, the GI50 in [7] is > 100 µM and 37 µM; in test [10] it was > 100 µM and 46.3 µM.
For `CN(C)CCC(=O)N1C/C(=C\c2ccc(Cl)c(Cl)c2)C(=O)/C(=C/c2ccc(Cl)c(Cl)c2)C1`, the concentration for total growth inhibition (TGI) in [1] was 0.979 µM; in test [2], 1.53 µM; in [3], 2.53 µM; in test [4], 0.747 µM; in test [5] it was 1.06 µM; in test [6], 0.752 µM. In addition, the TGI in [7] is 9.84 µM; in test [8], 1.69 µM; in test [9], 1.73 µM; in test [10], 0.349 µM.
As to `Cc1ccc(S(=O)(=O)N=Nc2c(O)[nH]c3cc(O)c(C(=O)O)cc23)cc1`, the concentration for total growth inhibition (TGI) in [1], in [2], in test [3], in test [4], in test [5] and in test [6] was > 100 µM throughout. For the same compound, the concentration for total growth inhibition (TGI) in test [7], in test [8], in test [9] and in test [10] was > 100 µM each time.
For `O=C1C=CC(=O)C2C1C1(Cl)C(Cl)=C(Cl)C2(Cl)C1(Cl)Cl` (stereo not drawn), the GI50 is 3.35 µM in test [1]; 1.56 µM in [2]; 6.82 µM in test [3]; 3.66 µM in [4]; 3.75 µM in test [5]; 10.1 µM in [6]. In addition, the GI50 in test [7] is 2.53 µM; in test [8], 12.4 µM; in [9], 2.51 µM; in [10], 3.94 µM. Further, the concentration for total growth inhibition (TGI) is 13.3 µM in test [1]; 7.48 µM in test [2]; 20 µM in test [3]; 12 µM in [4]; > 100 µM in [5]; 48.6 µM in [6]. Further, the TGI in test [7] stood at 12.3 µM; in test [8] it was 31.1 µM; in test [9], 7.92 µM; in [10], 15.1 µM.

The GI50 is the concentration that inhibits growth by half. In general, TGI refers to the concentration giving total growth inhibition.
